Literature values as cited in publication PMC9091901 (Journal of Pharmaceutical Analysis, 2021).

conditions: octanol-water partition coefficient; ref DrugBank database

SMILES	log P
CN1C(=O)NC(=O)C(C)(C2=CCCCC2)C1=O (centres unmarked) [Hexobarbital]	1.98
CC(COc1ccccc1)N(CCCl)Cc1ccccc1 (centres unmarked) [Phenoxybenzamine]	4.70
CCN(CC)Cc1cc(Nc2ccnc3cc(Cl)ccc23)ccc1O [Amodiaquine]	3.70
CC(C)(C)c1cc(O)ccc1O [Tert-butylhydroquinone]	2.91
O=c1[nH]c2ccccc2n1CCCN1CCC(n2c(=O)[nH]c3cc(Cl)ccc32)CC1 [Domperidone]	3.90
CC(C)NCC(O)c1ccc(NS(C)(=O)=O)cc1 (centres unmarked) [Sotalol]	−0.40
CC1Cc2ccccc2N1NC(=O)c1ccc(Cl)c(S(N)(=O)=O)c1 (centres unmarked) [Indapamide]	2.52
NCC[C@H](O)C(=O)N[C@@H]1C[C@H](N)[C@@H](O[C@H]2O[C@H](CN)[C@@H](O)[C@H](O)[C@H]2O)[C@H](O)[C@H]1O[C@H]1O[C@H](CO)[C@@H](O)[C@H](N)[C@H]1O [Amikacin]	−3.20
O=c1cc(O)c2ccccc2o1 [4-hydroxycoumarin]	1.01
CCOC(=O)C1=C(C)NC(C)=C(C(=O)OC)C1c1cccc([N+](=O)[O-])c1 (centres unmarked) [Nitrendipine]	2.88
CCOC(=O)C(C)(C)Oc1ccc(Cl)cc1 [Clofibrate]	3.30
O=C(O)c1cccc(C(=O)O)n1 [2,6-pyridinedicarboxylic acid]	−0.44
CC(C)(N)Cc1ccc(Cl)cc1 [Chlorphentermine]	2.60
CCN(CC)CCOC(=O)c1ccc(N)cc1 [Procaine]	2.14
